Source: patent US9133181B2, “Substituted 6-(4-hydroxy-phenyl)-1H-pyrazolo[3,4-b]pyridine derivatives as kinase inhibitors” (SANOFI, priority 2012, dated 2015)

The compounds below were run against T1, human full-length recombinant PKC βII (Homo sapiens, UniProt P05771) (assay: Determination of PKC βII inhibition (Caliper mobility shift kinase assay)). Conditions: final compound concentration 1.14 μM (±0.15 μM); 60 min incubation at 32° C.
T1 construct: Active human full-length recombinant PKC βII; purchased Invitrogen GmbH, Darmstadt, Germany
Format: biochemical
Summary of the method: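 Compound was tested at a final 1.14 µM (±0.15 µM), with % inhibition derived from the product/(substrate+product) peak ratio on a Caliper mobility-shift read-out. Full-length PKC βII was activated by CaCl2, PS and DAG in pH 7.4 Hepes/MgCl2. Peptide and ATP were at 3 µM and 120 µM in the added mix. Incubation was 60 min at 32 °C.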

T1 sequence (P05771 1-673 isoform P05771-2): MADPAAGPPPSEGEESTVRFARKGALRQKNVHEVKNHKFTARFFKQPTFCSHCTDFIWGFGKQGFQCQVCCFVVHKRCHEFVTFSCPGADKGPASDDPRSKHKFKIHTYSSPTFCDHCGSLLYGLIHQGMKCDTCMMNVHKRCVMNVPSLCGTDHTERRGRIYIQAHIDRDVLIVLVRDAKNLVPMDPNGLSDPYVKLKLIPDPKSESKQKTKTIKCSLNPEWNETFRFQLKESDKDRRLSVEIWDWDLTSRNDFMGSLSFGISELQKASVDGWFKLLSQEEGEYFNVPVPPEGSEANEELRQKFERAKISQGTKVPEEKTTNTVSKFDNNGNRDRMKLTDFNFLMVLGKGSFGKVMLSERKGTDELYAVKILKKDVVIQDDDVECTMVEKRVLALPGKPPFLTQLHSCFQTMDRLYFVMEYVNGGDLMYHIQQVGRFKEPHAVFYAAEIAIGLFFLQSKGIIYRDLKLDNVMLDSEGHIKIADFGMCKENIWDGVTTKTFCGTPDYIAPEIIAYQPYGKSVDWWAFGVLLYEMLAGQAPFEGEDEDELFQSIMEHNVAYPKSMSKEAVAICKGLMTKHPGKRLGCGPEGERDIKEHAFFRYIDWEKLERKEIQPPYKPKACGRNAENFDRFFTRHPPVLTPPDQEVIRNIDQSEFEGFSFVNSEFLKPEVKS

inhibition at 1.14 µM | Compound
93% | Cc1n[nH]c2nc(-c3ccc(O)cc3F)cc(CN3C[C@@H](C)NC[C@@H]3C(F)(F)F)c12 [Example 152, 3-Fluoro-4-[3-methyl-4-((2R,5R)-5-methyl-2-trifluoromethyl-piperazin-1-ylmethyl)-1H-pyrazolo[3,4-b]pyridin-6-yl]-phenol]
97% | Cc1n[nH]c2nc(-c3ccc(O)cc3F)cc(CN3C[C@@H](C)NC[C@H]3C(F)(F)F)c12 [Example 153, 3-Fluoro-4-[3-methyl-4-((2S,5R)-5-methyl-2-trifluoromethyl-piperazin-1-ylmethyl)-1H-pyrazolo[3,4-b]pyridin-6-yl]-phenol]
92% | Cc1n[nH]c2nc(-c3ccc(O)cc3F)cc(CN3C[C@H](C)NC[C@H]3C(F)(F)F)c12 [Example 154, 3-Fluoro-4-[3-methyl-4-((2S,5S)-5-methyl-2-trifluoromethyl-piperazin-1-ylmethyl)-1H-pyrazolo[3,4-b]pyridin-6-yl]-phenol]

Further lines, the compound ahead of its results:

Compound | inhibition at 1.14 µM
CC[C@H]1CNC(C)(C)CN1Cc1cc(-c2ccc(O)cc2)nc2[nH]nc(C)c12 [Example 145, 4-[4-((S)-2-Ethyl-5,5-dimethyl-piperazin-1-ylmethyl)-3-methyl-1H-pyrazolo[3,4-b]pyridin-6-yl]-phenol] | 95%
CC[C@@H]1CNC(C)(C)CN1Cc1cc(-c2ccc(O)cc2)nc2[nH]nc(C)c12 [Example 146, 4-[4-((R)-2-Ethyl-5,5-dimethyl-piperazin-1-ylmethyl)-3-methyl-1H-pyrazolo[3,4-b]pyridin-6-yl]-phenol] | 99%
Cc1n[nH]c2nc(-c3ccc(O)cc3F)cc(CN3CCC[C@](C)(N)C3)c12 [Example 147, 4-[4-((S)-3-Amino-3-methyl-piperidin-1-ylmethyl)-3-methyl-1H-pyrazolo[3,4-b]pyridin-6-yl]-3-fluoro-phenol] | 100%
Cc1n[nH]c2nc(-c3ccc(O)cc3F)cc(CN3CCC[C@@](C)(N)C3)c12 [Example 148, 4-[4-((R)-3-Amino-3-methyl-piperidin-1-ylmethyl)-3-methyl-1H-pyrazolo[3,4-b]pyridin-6-yl]-3-fluoro-phenol] | 99%
Cc1n[nH]c2nc(-c3ccc(O)cc3F)cc(CN3C[C@@](C)(C4CC4)NCC3(C)C)c12 [Example 149, 4-[4-((R)-5-Cyclopropyl-2,2,5-trimethyl-piperazin-1-ylmethyl)-3-methyl-1H-pyrazolo[3,4-b]pyridin-6-yl]-3-fluoro-phenol] | 98%
Cc1n[nH]c2nc(-c3ccc(O)cc3F)cc(CN3C[C@](C)(C4CC4)NCC3(C)C)c12 [Example 150, 4-[4-((S)-5-Cyclopropyl-2,2,5-trimethyl-piperazin-1-ylmethyl)-3-methyl-1H-pyrazolo[3,4-b]pyridin-6-yl]-3-fluoro-phenol] | 100%
Cc1n[nH]c2nc(-c3ccc(O)cc3F)cc(CN3C[C@H](C)NC[C@@H]3C(F)(F)F)c12 [Example 151, 3-Fluoro-4-[3-methyl-4-((2R,5S)-5-methyl-2-trifluoromethyl-piperazin-1-ylmethyl)-1H-pyrazolo[3,4-b]pyridin-6-yl]-phenol] | 90%
